In data set [1] the test system is Jurkat proteomes. In words: In vitro competition of KY-26 labeling, gel-based chemical proteomics. It counts as binding, human. Conditions: pretreatment 30 min, 37° C.: ATP 10-0.5 mM, KY-424 1 and 0.5 mM, then KY-26 5 μM. On the procedure: (§1) Briefly, Jurkat cells were grown to 80% confluency and treated with either DMSO or probe at the designated final concentration (KY-26 or XO44, 1,000× stock in serum-free media (SFM)) and incubated at 37° C. with 5% CO2 for 30 min. Cells were harvested and lysed in PBS buffer containing EDTA-free protease inhibitors. Addition of the rhodamine fluorescent tag was accomplished by CuAAC and fluorescently labeled proteins visualized by SDS-PAGE and in-gel fluorescence scanning. For KY-26 and XO44 live cell treated samples, 50 μL aliquots of proteome were used for gel experiments. […]
(§2) Cell pellets were lysed in PBS buffer (PBS+a protease inhibitor (sold under the tradename PIERCE™, Thermo Fisher Scientific, Waltham, Massachusetts, United States of America), EDTA free) by sonicating 3 times for 1 second×20% amplitude. […] Protein concentrations were measured using the Bio-Rad DC protein assay (Bio-Rad Laboratories, Hercules, California, United States of America), and fractions were diluted to a concentration of 1 mg/mL in PBS. […] 30 μL of each sample were separated by SDS-PAGE and analyzed by in-gel fluorescence scanning for the rhodamine azide tag. […]
In addition to solution reactivity, activity of KY-26 and XO44 in proteomes was compared using gel-based chemical proteomics. […] Probe-modified proteins were visualized by SDS-PAGE and in-gel fluorescence scanning. […]

A short description of data set [2]: HPLC solution reactivity of probe with n-butylamine (lysine mimetic). It counts as physicochemical. Conditions: TMG base, 0° C., KY-26 compared with p-cresol. The method, then: (§3) Briefly, reaction progress of KY-26 or XO44 with p-cresol or n-butylamine (16.5 μmol, 3.3 eq.) in the presence of TMG base (1,1,3,3-tetramethylguanidine, 1.1 eq) was evaluated by monitoring probe consumption and quantified based on the signal from the caffeine standard using HPLC. Synthetic peptide reactions were conducted by mixing the peptide (Ac-RLNERHYGGLTGLNK-NH2, 50 nmol, 1.0 eq.) with 1.1 eq of TMG. KY-26 (550 nmol, 11.0 eq) was added to the mixture and the reaction was kept at 37° C. until the reaction achieved at least 50% conversion.
(§4) More particularly, an acetonitrile solution of p-cresol or n-butylamine (16.5 μmol, 3.3 eq.) was mixed with 1.1 eq of TMG. KY-26 or XO44 in ACN:DMF=6:4 (5 μmol, 1.0 eq.) was added to the mixture and the reaction was kept at 0° C. The final molarity for KY-26 or XO44 is 10 mM. Aliquots (50 μl) of the reaction were taken and quenched by adding acetic acid (0.5 M final, 5.0 μmol) and caffeine standard (0.05 M final, 0.5 μmol) at ten-minute intervals for 1.5 hrs. 1.0 μL sample was injected and analyzed by reverse-phase HPLC with mobile phases A (H2O, 0.1% AcOH) and B (CH3CN, 0.1% AcOH) with a gradient of 0-15-85-100% B in 0-0.5-6.5-7 min. UV measurements taken at 254 nm. Reaction progress was evaluated by monitoring KY-26 or XO44 consumption and quantified based on the signal from the caffeine standard. […]

Data set [3] has as its system Jurkat cells. In words: Gel-based chemical proteomics, live cell probe labeling. Details: species or system human. On the procedure:
as §1, with “experiments. For KY-26 lysate labeling, 49 μL aliquots of cell lysate were used for each dose and time point before adding 1 μL of 50× KY-26 stock (5 μM final) and incubated for 30 min at 37° C.” for “experiments.”
as §2

Data set [4] in a line: HPLC solution reactivity of probe with p-cresol (tyrosine mimetic). Type of data set: physicochemical. The settings on record: UV 254 nm, TMG base, 0° C., longest time point tested 90 min. The method, then:
as §3, §4

The target of data set [5] is recombinant human CDK2 (Homo sapiens, UniProt P24941). Put plainly: Competition of KY-26 ABP labeling of recombinant CDK2 in HEK293T lysates. The settings on record: then 2.5 μM KY-26 30 minutes. It counts as binding. The method, then: Gateway cloning was performed to generate recombinant human CDK2 (containing a FLAG tag) overexpression plasmid (see FIG. 11) and recombinant human CDK2 was overexpressed in HEK293T mammalian cells. KY-26 and TH211 activity-based probe (ABP) labeling of the recombinant human CDK2 was performed. Briefly, recombinant human CDK2 overexpressed HEK293T lysates were incubated […] with various concentrations of TH211 (a broad-spectrum kinase ABP) or KY-26 (a targeted covalent kinase ABP) for 30- and 60-minutes. Western blots confirmed CDK2 overexpression with rabbit anti-FLAG and goat anti-rabbit 650 antibodies for samples incubated with KY-26 or TH211 probes.
Recombinant human CDK2 overexpressed HEK293T lysates were incubated with KY-424 (1 μM-10 μM) or free ATP (1 μM-10 μM) for 30 minutes at 37° C. Subsequently, samples were incubated with 2.5 μM KY-26 for 30 minutes at 37° C. […] Based on this finding, the study was performed using additional concentrations of KY-424 ([…]) or free ATP (400 μM-10 mM) for 30 minutes at 37° C. Again, samples were then incubated with 2.5 μM KY-26 for 30 minutes at 37° C. […] Lysates from 24- (KY-424 competition) and 48-hour transfections (ATP competition) were used.

Bounds are passed on as bounds.

Turning to `Nc1ncnc2c1ncn2[C@@H]1O[C@H](COP(=O)(O)OP(=O)(O)OP(=O)(O)O)[C@@H](O)[C@H]1O` [ATP, adenosine triphosphate, reference compound], in data set [1], the “blockade of KY-26 labeling of proteomes” value is on record as “concentration-dependent blockade”.

Turning to `C#CCNC(=O)c1cc(Nc2cc(C3CC3)[nH]n2)nc(N2CCN(C(=O)c3ccc(S(=O)(=O)n4cnc(-c5ccccc5)n4)cc3)CC2)n1` [KY-26, 6-((5-cyclopropyl-1H-pyrazol-3-yl)amino)-2-(4-(4-((3-phenyl-1H-1,2,4-triazol-1-yl)sulfonyl)benzoyl)piperazin-1-yl)-N-(prop-2-yn-1-yl)pyrimidine-4-carboxamide], the “reaction of probe with n-butylamine” value in data set [2] is on record as “reduced activity”. Also, the “probe labeling in live cells, dependence on concentration and time” value in data set [3] (2.5-25 μM, 15-120 min) was “concentration- and time-dependent probe labeling”. The “proteome reactivity, in-gel fluorescence intensity compared with XO44” value in data set [3] (live Jurkat cells, 5 μM, 30 min, 37° C.) is “substantially increased reactivity”. In addition, the “time to near-complete depletion of probe in reaction with p-cresol” value in data set [4] is not above 20 min.

Consider `CCCNC(=O)c1cc(Nc2cc(C3CC3)[nH]n2)nc(N2CCN(C(=O)c3ccc(S(=O)(=O)n4cnc(-c5ccccc5)n4)cc3)CC2)n1` [KY-424, 6-((5-cyclopropyl-1H-pyrazol-3-yl)amino)-2-(4-(4-((3-phenyl-1H-1,2,4-triazol-1-yl)sulfonyl)benzoyl)piperazin-1-yl)-N-propylpyrimidine-4-carboxamide], for which the “blockade of KY-26 labeling of recombinant human CDK2” value in data set [5] (40 nM KY-424, 30 minutes at 37° C., HEK293T lysates) was “approximately 50%”. Also, the “competition of KY-26 ABP labeling of recombinant human CDK2” value in data set [5] (KY-424 1 μM-10 μM, 30 minutes at 37° C.) is “potently competes”. In data set [1], the “blockade of KY-26 labeling of proteomes” value is “concentration-dependent blockade”.

The values are drawn from patent US20240400542A1 (University of Virginia Patent Foundation, priority 2021, published 2024).
